In US9510592B2, “Pesticidal compositions and processes related thereto” (Dow AgroSciences LLC, priority 2012, dated 2016):

The compounds below were run on Beet Armyworm (Spodoptera exigua) (assay: Bioassay on Beet Armyworm (BAW), 128-well diet tray assay). Settings: percent mortality of second instar larvae, 50 μg/cm^2 on artificial diet, five to seven days, 25° C.; Table 3.
Assay type: in vivo
Experimental: Certain molecules disclosed in this document were tested against BAW and CEW and CL using procedures described in the following examples. In the reporting of the results, the “BAW & CEW & CL Rating Table” was used (See Table Section).
Bioassays on BAW (Spodoptera exigua)
Bioassays on BAW were conducted using a 128-well diet tray assay. one to five second instar BAW larvae were placed in each well (3 mL) of the diet tray that had been previously filled with 1 mL of artificial diet to which 50 μg/cm^2 of the test compound (dissolved in 50 μL of 90:10 acetone-water mixture) had been applied (to each of eight wells) and then allowed to dry. Trays were covered with a clear self-adhesive cover, and held at 25° C., 14:10 light-dark for five to seven days. Percent mortality was recorded for the larvae in each well; activity in the eight wells was then averaged. The results are indicated in the table entitled “Table 3: Assay Results” (See Table Section).

Row | Structure (SMILES) | BAW Rating
1 | CC(=O)NCc1ccc(/C=C/C(c2cc(Cl)cc(Cl)c2)C(F)(F)F)cc1Cl (stereo not shown) [CC7, (E)-N-(2-Chloro-4-(3-(3,5-dichlorophenyl)-4,4,4-trifluorobut-1-en-1-yl)benzyl)acetamide] | A (50-100)
2 | O=C(NCc1ccc(/C=C/C(c2cc(Cl)cc(Cl)c2)C(F)(F)F)cc1Cl)C1CC1 (stereo not shown) [CC8] | A (50-100)
3 | O=C(CC(F)(F)F)NCc1ccc(/C=C/C(c2cc(Cl)cc(Cl)c2)C(F)(F)F)cc1Cl (stereo not shown) [CC9] | A (50-100)
4 | O=C(NCc1ccc(/C=C/C(c2cc(Cl)c(Cl)c(Cl)c2)C(F)(F)F)cc1Cl)C1CC1 (stereo not shown) [CC11] | A (50-100)
5 | O=C(Cc1ccc(Cl)nc1)NCc1ccc(/C=C/C(c2cc(Cl)c(Cl)c(Cl)c2)C(F)(F)F)cc1Cl (stereo not shown) [CC14] | A (50-100)
6 | O=C(NCc1ccc(/C=C/C(c2cc(Cl)c(F)c(Cl)c2)C(F)(F)F)cc1Cl)C1CC1 (stereo not shown) [CC15] | A (50-100)
7 | O=C(NCc1ccc(/C=C/C(c2ccc(Cl)c(Cl)c2)C(F)(F)F)cc1Cl)C1CC1 (stereo not shown) [CC17] | A (50-100)
8 | O=C(CC(F)(F)F)NCc1ccc(/C=C/C(c2ccc(Cl)c(Cl)c2)C(F)(F)F)cc1Cl (stereo not shown) [CC18] | A (50-100)
9 | CSCCC(=O)NCc1ccc(/C=C/C(c2cc(Cl)c(Cl)c(Cl)c2)C(F)(F)F)cc1Cl (stereo not shown) [CC19] | A (50-100)
10 | FC(F)(F)C(/C=C/c1ccc(CNC(=S)C2CC2)c(Cl)c1)c1cc(Cl)c(Cl)c(Cl)c1 (stereo not shown) [CC20] | A (50-100)
11 | O=C(NCc1ccc(/C=C/C(c2cc(Cl)cc(Cl)c2)C(F)(F)F)cc1C(F)(F)F)C1CC1 (stereo not shown) [CC21] | A (50-100)
12 | O=C(NCc1ccc(/C=C/C(c2cc(Cl)c(Cl)c(Cl)c2)C(F)(F)F)cc1C(F)(F)F)C1CC1 (stereo not shown) [CC22] | A (50-100)
13 | O=C(NCc1ccc(/C=C/C(c2cc(Cl)c(Cl)c(Cl)c2)C(F)(F)F)cc1C(F)(F)F)c1cccnc1 (stereo not shown) [CC23] | A (50-100)
14 | O=C(CC(F)(F)F)NCc1ccc(/C=C/C(c2cc(Cl)c(Cl)c(Cl)c2)C(F)(F)F)cc1C(F)(F)F (stereo not shown) [CC24] | A (50-100)
15 | O=C(CC(F)(F)F)NCc1ccc(/C=C/C(c2cc(Cl)c(Cl)c(Cl)c2)C(F)(F)F)cc1Br (stereo not shown) [CC25] | A (50-100)
16 | O=C(NCc1ccc(/C=C/C(c2cc(Cl)c(Cl)c(Cl)c2)C(F)(F)F)cc1Br)C1CC1 (stereo not shown) [CC26] | A (50-100)
17 | O=C(CC(F)(F)F)NCc1ccc(/C=C/C(c2cc(Cl)c(Cl)c(Cl)c2)C(F)(F)F)cc1F (stereo not shown) [CC27] | A (50-100)
18 | O=C(NCc1ccc(/C=C/C(c2cc(Cl)c(Cl)c(Cl)c2)C(F)(F)F)cc1F)C1CC1 (stereo not shown) [CC28] | A (50-100)
19 | O=C(C1CC1)N(Cc1ccccn1)Cc1ccc(/C=C/C(c2cc(Cl)c(Cl)c(Cl)c2)C(F)(F)F)cc1C(F)(F)F (stereo not shown) [CC29, (E)-N-(Pyridin-2-ylmethyl)-N-(4-(4,4,4-trifluoro-3-(3,4,5-trichlorophenyl)but-1-enyl)-2-(trifluoromethyl)benzyl)cyclopropanecarboxamide] | A (50-100)
20 | CS(=O)(=O)CCC(=O)NCc1ccc(/C=C/C(c2cc(Cl)c(Cl)c(Cl)c2)C(F)(F)F)cc1Cl (stereo not shown) [CC30, (E)-N-(2-Chloro-4-(4,4,4-trifluoro-3-(3,4,5-trichlorophenyl)but-1-en-1-yl)benzyl)-3-(methylsulfonyl)propanamide] | A (50-100)
21 | CCNC(=O)NCc1ccc(/C=C/C(c2cc(Cl)cc(Cl)c2)C(F)(F)F)cc1Cl (stereo not shown) [CC31, (E)-1-(2-Chloro-4-(3-(3,5-dichlorophenyl)-4,4,4-trifluorobut-1-en-1-yl)benzyl)-3-ethylurea] | B (More than 0-Less than 50)
22 | CCNC(=O)NCc1ccc(/C=C/C(c2cc(Cl)c(Cl)c(Cl)c2)C(F)(F)F)cc1C(F)(F)F (stereo not shown) [CC32] | A (50-100)
23 | CCNC(=O)NCc1ccc(/C=C/C(c2cc(Cl)c(Cl)c(Cl)c2)C(F)(F)F)cc1Br (stereo not shown) [CC33] | A (50-100)
24 | O=C(NCc1ccc(/C=C/C(c2cc(Cl)c(Cl)c(Cl)c2)C(F)(F)F)cc1Cl)N1CCOCC1 (stereo not shown) [CC34] | A (50-100)
25 | CN(C)C(=O)NCc1ccc(/C=C/C(c2cc(Cl)c(Cl)c(Cl)c2)C(F)(F)F)cc1Cl (stereo not shown) [CC36, (E)-3-(2-Chloro-4-(4,4,4-trifluoro-3-(3,4,5-trichlorophenyl)but-1-en-1-yl)benzyl)-1,1-dimethylurea] | A (50-100)
26 | CCNC(=S)NCc1ccc(/C=C/C(c2cc(Cl)c(Cl)c(Cl)c2)C(F)(F)F)cc1Cl (stereo not shown) [CC37, (E)-1-(2-Chloro-4-(4,4,4-trifluoro-3-(3,4,5-trichlorophenyl)but-1-en-1-yl)benzyl)-3-ethylthiourea] | A (50-100)

Row | Structure (SMILES) | BAW Rating
27 | C=CCNC(=S)NCc1ccc(/C=C/C(c2cc(Cl)c(Cl)c(Cl)c2)C(F)(F)F)cc1Cl (stereo not shown) [CC38] | A (50-100)
28 | FC(F)(F)C(/C=C/c1ccc(CNc2ccccn2)c(Cl)c1)c1cc(Cl)c(Cl)c(Cl)c1 (stereo not shown) [CC43, (E)-N-(2-Chloro-4-(4,4,4-trifluoro-3-(3,4,5-trichlorophenyl)but-1-en-1-yl)benzyl)pyridin-2-amine] | A (50-100)
29 | O=C(CC(F)(F)F)NCc1ncc(/C=C/C(c2cc(Cl)c(Cl)c(Cl)c2)C(F)(F)F)cc1Cl (stereo not shown) [CC44, (E)-N-((3-Chloro-5-(4,4,4-trifluoro-3-(3,4,5-trichlorophenyl)-but-1-en-1-yl)pyridin-2-yl)methyl)-3,3,3-trifluoropropanamide] | A (50-100)
30 | O=C(NCc1ncc(/C=C/C(c2cc(Cl)c(Cl)c(Cl)c2)C(F)(F)F)cc1Cl)C1CC1 (stereo not shown) [CC45] | A (50-100)
31 | O=C(NNc1ccc(/C=C/C(c2cc(Cl)c(Cl)c(Cl)c2)C(F)(F)F)cc1)C1CC1 (stereo not shown) [CC50, (E)-N′-(4-(4,4,4-Trifluoro-3-(3,4,5-trichlorophenyl)but-1-en-1-yl)phenyl)cyclopropanecarbohydrazide] | A (50-100)
32 | O=C(CC(F)(F)F)NNc1ccc(/C=C/C(c2cc(Cl)c(Cl)c(Cl)c2)C(F)(F)F)cc1 (stereo not shown) [CC51] | A (50-100)
33 | O=C(NOc1ccc(/C=C/C(c2cc(Cl)c(Cl)c(Cl)c2)C(F)(F)F)cc1)C1CC1 (stereo not shown) [CC52, (E)-N-(4-(4,4,4-Trifluoro-3-(3,4,5-trichlorophenyl)but-1-en-1-yl)phenoxy)cyclopropanecarboxamide] | A (50-100)
34 | O=C(CC(F)(F)F)NCc1ccc(/C=C\C(c2cc(Cl)c(Cl)c(Cl)c2)C(F)(F)F)cc1 (stereo not shown) [CC54, (Z)-3,3,3-Trifluoro-N-(4-(4,4,4-trifluoro-3-(3,4,5-trichlorophenyl)but-1-en-1-yl)benzyl)propanamide] | A (50-100)
35 | FC(F)(F)C(/C=C/c1ccc(-n2cncn2)cc1)c1cc(Cl)cc(Cl)c1 (stereo not shown) [DC1, (E)-1-(4-(3-(3,5-Dichlorophenyl)-4,4,4-trifluorobut-1-en-1-yl)phenyl)-1H-1,2,4-triazole] | A (50-100)
36 | FC(F)(F)C(/C=C/c1ccc(-n2cncn2)cc1)c1ccccc1 (stereo not shown) [DC3] | B (More than 0-Less than 50)
37 | FC(F)(F)C(/C=C/c1ccc(-n2cncn2)cc1)c1ccc(Cl)cc1 (stereo not shown) [DC4] | A (50-100)
38 | Fc1ccc(C(/C=C/c2ccc(-n3cncn3)cc2)C(F)(F)F)cc1 (stereo not shown) [DC7] | A (50-100)
39 | Fc1cc(F)cc(C(/C=C/c2ccc(-n3cncn3)cc2)C(F)(F)F)c1 (stereo not shown) [DC8] | A (50-100)
40 | Cc1cc(C)cc(C(/C=C/c2ccc(-n3cncn3)cc2)C(F)(F)F)c1 (stereo not shown) [DC11] | A (50-100)
41 | FC(F)(F)C(/C=C/c1ccc(-n2cncn2)cc1)c1ccc(Cl)c(Cl)c1 (stereo not shown) [DC12] | A (50-100)
42 | FC(F)(F)c1cc(C(/C=C/c2ccc(-n3cncn3)cc2)C(F)(F)F)cc(C(F)(F)F)c1 (stereo not shown) [DC16] | A (50-100)
43 | COc1c(Cl)cc(C(/C=C/c2ccc(-n3cncn3)cc2)C(F)(F)F)cc1Cl (stereo not shown) [DC20] | A (50-100)
44 | N#Cc1cc(/C=C/C(c2cc(Cl)cc(C(F)(F)F)c2)C(F)(F)F)ccc1-n1cncn1 (stereo not shown) [DC33] | A (50-100)
45 | COc1c(Cl)cc(C(/C=C/c2ccc(-n3cncn3)c(C#N)c2)C(F)(F)F)cc1Cl (stereo not shown) [DC34] | A (50-100)
46 | N#Cc1cc(/C=C/C(c2cc(Cl)c(F)c(Cl)c2)C(F)(F)F)ccc1-n1cncn1 (stereo not shown) [DC35] | A (50-100)
47 | N#Cc1cc(/C=C/C(c2cc(Cl)cc(Cl)c2)C(F)(F)F)ccc1-n1cnc([N+](=O)[O-])n1 (stereo not shown) [DC37] | A (50-100)
48 | N#Cc1cc(/C=C/C(c2cc(Cl)cc(Cl)c2)C(F)(F)F)ccc1-n1cnc(N)n1 (stereo not shown) [DC38] | A (50-100)
49 | CC(=O)Nc1ncn(-c2ccc(/C=C/C(c3cc(Cl)cc(Cl)c3)C(F)(F)F)cc2C#N)n1 (stereo not shown) [DC39] | A (50-100)
50 | N#Cc1cc(/C=C/C(c2cc(Cl)c(Cl)c(Cl)c2)C(F)(F)F)ccc1-n1cnc([N+](=O)[O-])n1 (stereo not shown) [DC40, (E)-2-(3-Nitro-1H-1,2,4-triazol-1-yl)-5-(4,4,4-trifluoro-3-(3,4,5-trichlorophenyl)but-1-en-1-yl)benzonitrile] | A (50-100)
51 | N#Cc1cc(/C=C/C(c2cc(Cl)c(Cl)c(Cl)c2)C(F)(F)F)ccc1-n1cnc(N)n1 (stereo not shown) [DC41, (E)-2-(3-Amino-1H-1,2,4-triazol-1-yl)-5-(4,4,4-trifluoro-3-(3,4,5-trichlorophenyl)but-1-en-1-yl)benzonitrile] | A (50-100)
52 | N#Cc1cc(/C=C/C(c2cc(Cl)c(Cl)c(Cl)c2)C(F)(F)F)ccc1-n1cnc(N(C(=O)C2CC2)C(=O)C2CC2)n1 (stereo not shown) [DC42, (E)-N-(1-(2-Cyano-4-(4,4,4-trifluoro-3-(3,4,5-trichlorophenyl)but-1-en-1-yl)phenyl)-1H-1,2,4-triazol-3-yl)-N-(cyclopropanecarbonyl)cyclopropanecarboxamide] | A (50-100)
